Values of other authors in patent US20030096243A1, “Methods and reagents for live-cell gene expression quantification” (priority 2000, published 2003).
Ends that are not written are not given here. * marks the point of attachment. FITC = O=C1OC2(c3ccc(O)cc3Oc3cc(O)ccc32)c2ccc(NC(=S)*)cc21

Tests used:
[1] = target: T1, N protein (Escherichia phage lambda, UniProt P03045); details: native sequence GCCCUGAAAAAGGGC (SEQ ID NO: 45)
T1 sequence (P03045 1-107): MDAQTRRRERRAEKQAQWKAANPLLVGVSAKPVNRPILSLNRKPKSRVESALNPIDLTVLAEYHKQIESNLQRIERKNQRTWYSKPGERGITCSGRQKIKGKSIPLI

[2] = system: boxB RNA stem-loop structure

GCCCUAAAAAAGGGC (chemistry not given here) [SEQ ID NO: 44]
in vivo activity relative to the native boxB sequence [1]: less than 1%

GCCCUAGAAAAGGGC (chemistry not given here) [SEQ ID NO: 46]
in vivo activity relative to the native boxB sequence [1]: ~90%

N1-22: arginine-rich peptide comprising the first twenty-two amino acids of bacteriophage λ N protein ({FITC}-MDAQTRRRERRAEKQAQWKAANKG; not fully specified (residue 23); also: doubly labeled)
affinity for boxB RNA [2]: high affinity
